One experiment concerns human neutrophils. Kind of experiment: Phagokinetic activity of human neutrophils on gold sol-coated plates. The format is cell-based. The settings on record: 4.5 μM; 2 hours; mean ± S.D.; control 6.3 ± 2.3. On the procedure: Phagokinetic activity is measured by the ability of cells to ingest foreign particles while moving. Cell motility can be estimated as the area of a phagokinetic track on gold sol particle-coated plates as previously described {Albrecht-Buehler, Cell, 11:395 (1977)}. A uniform coating of gold particles is prepared on glass coverslips precoated with bovine serum albumin, and coverslips are rinsed repeatedly to remove non-adhering or loosely-adhering gold particles. Freshly-prepared neutrophils or tumor cells detached from culture are placed in a Petri dish containing the gold sol-coated plate, and incubated for about 2 hours (for human neutrophils) or about 18 hours (for tumor cells). The coverslips are fixed for 1 hour in a 4% formaldehyde solution in phosphate-buffered saline (PBS) and mounted on microscope slides. The phagokinetic tracks are observed on a television connected to a light microscope (Nikon, Tokyo, Japan). Tracks on the television are transferred to translucent sheets, which are then photocopied. Phagokinetic activity is quantitated by cutting and weighing the swept area in the copy.
Cell motility was estimated as the area of phagokinetic track on gold sol particle-coated plates as previously described {Albrecht-Buehler, Cell, 11:395 (1977)}. A uniform coating of gold particles was prepared on glass coverslips precoated with bovine serum albumin, and the coverslips were rinsed repeatedly to remove non-adhering or loosely-adhering gold particles. Freshly-prepared neutrophils or tumor cells detached from culture were placed in a Petri dish containing the gold sol-coated plate, and incubated for 2 hours (for human neutrophils) or 18 hours (for tumor cells). The coverslips were fixed for 1 hour in 4% formaldehyde solution in phosphate-buffered saline (PBS) and mounted on microscope slides. The phagokinetic tracks were observed on a television connected to a light microscope (Nikon, Tokyo, Japan). Tracks on the television were transferred to translucent sheets, which were then photocopied. Phagokinetic activity was quantitated by cutting and weighing the swept area in the copy.
**mean ± S.D. Freshlyprepared neutrophils (1 × 10^4
cell/plate) were seeded on a coverslip precoated with gold sol particles
in the presence or absence of test compound. 2 hours later, incubation wa
terminated by adding 200 μl of 10% formaldehyde and the cleared area
was estimated as described in the text.

For experiment [1], the system named is B16/F1 melanoma cells. Briefly: Chemotactic motility of B16/F1 cells through MATRI-GEL-coated transwell filter. The class given is cell-based, mouse. The settings on record: percent relative to control; mean ± S.E., n = 3 or 4; concentration not given. Here is the method:
(§1) The assays for determining chemotactic cell motility and chemoinvasion can be performed using transwell plates with a polycarbonate membrane filter (pore size 8 μm) (Costar Scientific, Cambridge, Mass.). Aliguots, e.g., 50 μl, of an aqueous solution of MATRI-GEL (Collaborative Research, Bedford, Mass.) containing SPN-1-P or other inhibitor (e.g., 20 μg/ml for chemotactic motility assay or 200 μg/ml for chemoinvasion assay), is added to each well and dried overnight. The filter is then fitted onto the lower chamber plate. The lower chamber can contain conditioned medium (CM) (i.e., medium used for splenic stromal cell culture, and containing motility factor secreted by these cells), e.g., 0.6 ml, with or without SPN-1-P or other inhibitor. To the upper chamber is added, e.g., about 100 μl, of cell suspension (5×10^4 cells/ml for invasion assay, 5×10^5 cells/ml for motility assay), which is then incubated in 5% CO2 at 37° C. for 70-72 hours (invasion assay) or 20 hours (motility assay). After incubation, cells remaining in the upper chamber are wiped off with a cotton swab, and cells which had migrated to the lower chamber side of the filter are fixed in methanol for 30 seconds and stained with 0.05% toluidine blue. The filter is removed, the stain is solubilized in 10% acetic acid (e.g., 0.1 ml for invasion assay, 0.5 ml for motility assay), and color intensity (optical density) is quantitated by ELISA reading at 630 nm. Using SPN-1-P, a linear relationship was observed between cell number and toluidine blue optical density (FIG. 7).
(§2) Assays were performed using transwell plates with polycarbonate membrane filters (pore size 8 μm) (Costar Scientific, Cambridge, Mass.). 50 μl aliguots of an aqueous solution of MATRI-GEL (Collaborative Research, Bedford, Mass.) containing 20 μg/ml (for chemotactic motility assay) or 200 μg/ml (for chemoinvasion assay) were added to each well and dried overnight. The filter was fitted onto the lower chamber plate. The lower chamber contained 0.6 ml conditioned medium (CM) (i.e., medium used for splenic stromal cell culture, and containing motility factor secreted by these cells) with or without the suspected inhibitor. To the upper chamber was added 100 μl of cell suspension (5×10^4 cells/ml for invasion assay, 5×10^5 cells/ml for motility assay), which was then incubated in 5% CO2 at 37° C. for 70-72 hours (invasion assay) or 20 hours (motility assay). After incubation, cells remaining in the upper chamber were wiped off with a cotton swab, and cells which had migrated to the lower chamber side of the filter were fixed in methanol for 30 seconds and stained with 0.05% toluidine blue. The filter was removed, the stain was solubilized in 10% acetic acid (0.1 ml for invasion assay, 0.5 ml for motility assay), and color intensity (optical density) was quantitated by ELISA reading at 630 nm. A linear relationship was observed between cell number and toluidine blue optical density (FIG. 7.).
In experiments with different quantities of MATRI-GEL, cell migration through transwell filter was maximal with 1 μg/well was applied, and when CM was used (FIG. 8). Therefore, chemotactic cell motility, as affected by various SPN derivatives, was assayed under these conditions.
*Mean ± S.E. of percent relative to control (n = 4). Actual O.D. value
and 0.147 (HT1080). 6 × 10^4 cells were placed on a transwell
filter coated with 1.0 μg MATRIGEL in the upper chamber, and cultured
for 18 hours in the presence of CM and SPN1-P in the lower chamber.

Experiment [2] concerns B16/F1 melanoma cells. Briefly: Chemoinvasion of B16/F1 cells through thick MATRI-GEL layer on transwell filter. The class given is cell-based, mouse. Particulars: percent relative to control; mean ± S.E., n = 3 or 4; concentration not given; 4200 min. On the procedure: as §1, §2
Chemoinvasion was measured by the ability of tumor cells in CM (as described above) to migrate through a thick layer of MATRI-GEL during a prolonged incubation period (70 hours). This property is distinct from chemotactic cell motility, which involves a much shorter incubation period (20 hours) and a thin layer of MATRI-GEL. For the chemoinvasion assay, 10 μg of MATRI-GEL was applied to a polycarbonate transwell filter and migration was observed following 70 hours incubation (based on results shown in FIG. 8).

In experiment [3] the test system is PKC of B16/F1 melanoma cells. Briefly: PKC activity of B16/F1 melanoma cells (32P incorporation into histone IIIS). Particulars: concentration not given. The format is biochemical, mouse. On the procedure:
Effects of SPN derivatives on protein kinase C activity and cell growth of B16/F1 cells was also investigated. […] Toxicity of these compounds to B16/F1 cells and human neutrophils was also examined using a trypan blue exclusion assay after 1 hour incubation with the compounds.
*Mean ± S.E. (n = 3). For controls (defined as 100%), PKC activity was
33225 cpm per tube per 20 min, as measured by ^32 P incorporation int

Experiment [4] deals with B16/F1 melanoma cells. Briefly: Growth of B16/F1 melanoma cells (cell count after 48 hr). The class given is cell-based, mouse. The settings on record: Mus musculus, B16-F1; 10 μM; 48 hr; control = 100%; mean ± S.E., n = 3.
Procedure: *Mean ± S.E. (n = 3). For controls (defined as 100%), cell number was
10^5 cells were seeded and
cultured on a 35 mm plastic dish in Dulbecco's modified Eagle's medium
containing 2% fetal bovine serum in the presence or absence of SPN
derivatives. 48 hr later, cells were counted.

For the compound ceramide, in the experiment on human neutrophils, the Cleared area is 5.7 ± 3.0 × 10^3 μm^2.

Take `NCCOP(=O)(O)O` [phosphoethanolamine]: the Cleared area in the experiment on human neutrophils is recorded as 5.9 ± 2.5 × 10^3 μm^2. In addition, the “% motility” value in the experiment on B16/F1 melanoma cells [1] turned out to be 86 ± 20%. Also, in the experiment on B16/F1 melanoma cells [2], the “% invasion” value stood at 160 ± 57%.

With `NCCO` [ethanolamine], the “% motility” value in the experiment with B16/F1 melanoma cells [1] stood at 85 ± 13%. For the same compound, the “% invasion” value in the experiment with B16/F1 melanoma cells [2] came to 140 ± 41%.

Consider sphingomyelin, for which the “% motility” value in the experiment with B16/F1 melanoma cells [1] is recorded as 82 ± 11%. In the experiment on B16/F1 melanoma cells [2], the “% invasion” value is recorded as 138 ± 18%.

On to `CCCCCCCCCCCCC/C=C/[C@@H](O)[C@H](CO)N(C)C` [DMS, N,N-dimethylsphingosine], for which the “PKC inhibition” value in experiment [3] is “in striking contrast to DMS and TMS, SPN-1-P does not inhibit PKC”.

For the compound `CCCCCCCCCCCCC/C=C/[C@@H](O)[C@H](CO)NC(C)=O` [N-acetyl-SPN], in the experiment on B16/F1 melanoma cells [4], the activity at 10 µM was found to be 102 ± 4%. For the same compound, the “% motility” value with B16/F1 melanoma cells [1] came out at 99 ± 16%. In addition, the “% invasion” value with B16/F1 melanoma cells [2] is given as 96 ± 14%.

ceramide monohexoside [CMH]: in the experiment with B16/F1 melanoma cells [1], the “% motility” value is recorded as 162 ± 29%. In addition, the “% invasion” value with B16/F1 melanoma cells [2] is 178 ± 70%.

Consider phosphatidylethanolamine, for which the “% motility” value with B16/F1 melanoma cells [1] amounted to 107 ± 18%. Further, the “% invasion” value in the experiment with B16/F1 melanoma cells [2] was 104 ± 37%.

The values are drawn from patent publication US5391800A, “Method for inhibition of cell motility by sphingosine-1-phosphate, its derivatives and mimetics and method of synthesizing sphingosine-1-phosphate and its derivatives” (The Biomembrane Institute, priority 1993, dated 1995).
